Key:
[1] = test system: Human TLR7/8; experiment: Human PBMC cell-based assay, TLR7/8 (RNA-Ig), cytokine ELISA; details: PBMC assay data summary; ligand and analyte not given; read-out: Human PBMCs IC50
Protocol: Human peripheral blood mononuclear cells (PBMC) were isolated from freshly-drawn heparinized (10 USP units/ml, Hospira, Lakeforest, Ill.) healthy donor whole blood by density gradient (Histopaque® 1077, Sigma, Inc., St. Louis, Mo.). Briefly, 25 ml blood was diluted with 15 ml PBS (without Ca^2+, Mg^2+) in a 50 ml conical tube, and 12 ml Histopaque was underlaid using a spinal needle. Tubes were centrifuged for 45 minutes at 1200 rpm (350×g), and PBMC were collected from the buffy coat. Cells were then washed twice in PBS, and red blood cells were lysed by suspension in 5 ml ammonium chloride solution (1× Red Blood Cell Lysis Buffer, eBioscience) for 5 minutes at room temperature. After a final wash in PBS, PBMC were resuspended at a final concentration of 2×10^6/ml in RPMI-1640 media with L-glutamine (Invitrogen) and supplemented with 25 mM HEPES (Mediatech, Inc, Manassas Va.), 10% fetal bovine serum (HyClone, Logan, Utah), and Penicillin-Streptomycin-Glutamine (Mediatech) and plated at 100 ul/well (2×10^5 cells/well) in tissue culture treated 96-well plates (Falcon).
Antagonist compounds solubilized and serial diluted in 100% DMSO were added in triplicate to cells to yield a final concentration of 0.1% DMSO (v/v). Hydroxychloroquine (Acros Organics) solubilized and serial diluted in PBS was added in triplicate to cells. PBMC were incubated with antagonist compounds or HCQ for 30 minutes at 37° C., 5% CO2 before adding various TLR agonist reagents in 100 ul complete media per well as follows (final concentrations indicated): R848 (Resiquimod; GLSynthesis, Worcester, Mass.) at 1 uM for TLR7 and TLR8, Pam3CSK4 (InvivoGen) at 50 ng/ml for TLR1/2, LPS (Sigma) at 10 ng/ml for TLR4, and CpG-2216 (InvivoGen) at 5 ug/ml for TLR9. […] The resulting “RNA-Ig” stimulus was incubated at room temperature for 15-30 minutes before adding to cells. PBMC were incubated with the various TLR agonists for 20 hours at 37° C., 5% CO2. Cell culture supernatants were collected, and levels of various human cytokines were assessed as indicated by standard ELISA procedure according to the manufacturer's recommended protocol (BD Biosciences, Inc., San Diego, Calif.).

[2] = biological target: T1, mouse TLR7 (Mus musculus, UniProt P58681); experiment: Short-term in vivo (STIV) assay, plasma IL-6 after R848; details: plasma IL-6 after R848 s.c., BALB/c mice
T1 construct: tissue Jackson Labs; host or cells: live female BALB/c mice
T1 sequence (P58681 27-1050): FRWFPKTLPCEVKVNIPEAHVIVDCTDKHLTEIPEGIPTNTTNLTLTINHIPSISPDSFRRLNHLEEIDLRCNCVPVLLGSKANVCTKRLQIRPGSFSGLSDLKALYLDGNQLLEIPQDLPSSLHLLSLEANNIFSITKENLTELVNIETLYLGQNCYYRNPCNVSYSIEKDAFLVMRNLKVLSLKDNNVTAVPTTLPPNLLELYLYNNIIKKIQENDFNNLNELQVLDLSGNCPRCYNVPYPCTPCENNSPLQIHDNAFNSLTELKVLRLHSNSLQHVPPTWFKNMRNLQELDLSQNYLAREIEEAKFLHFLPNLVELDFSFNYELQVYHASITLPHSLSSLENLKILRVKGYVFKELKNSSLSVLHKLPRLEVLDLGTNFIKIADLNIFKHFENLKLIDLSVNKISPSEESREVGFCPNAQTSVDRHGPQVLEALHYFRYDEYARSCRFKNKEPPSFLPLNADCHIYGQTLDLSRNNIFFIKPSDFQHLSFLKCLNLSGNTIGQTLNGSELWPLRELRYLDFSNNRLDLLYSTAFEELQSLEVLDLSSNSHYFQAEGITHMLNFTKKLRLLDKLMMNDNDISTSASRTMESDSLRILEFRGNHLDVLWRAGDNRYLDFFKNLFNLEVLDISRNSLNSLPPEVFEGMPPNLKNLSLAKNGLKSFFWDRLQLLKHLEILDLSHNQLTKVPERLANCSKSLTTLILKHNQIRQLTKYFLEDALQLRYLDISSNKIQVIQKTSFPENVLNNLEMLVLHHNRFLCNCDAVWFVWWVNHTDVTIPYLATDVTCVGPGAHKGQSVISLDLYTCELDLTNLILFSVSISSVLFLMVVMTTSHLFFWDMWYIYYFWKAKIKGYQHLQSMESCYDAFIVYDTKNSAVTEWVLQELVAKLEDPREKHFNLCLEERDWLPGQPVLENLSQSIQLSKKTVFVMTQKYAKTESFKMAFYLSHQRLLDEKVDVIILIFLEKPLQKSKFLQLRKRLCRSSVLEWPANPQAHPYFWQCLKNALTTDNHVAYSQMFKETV
Protocol: To assess compound potency in vivo against mouse TLR7, a short-term in vivo (STIV) assay was utilized. Briefly, mice were orally dosed with compounds and at various time points afterwards were injected subcutaneously with agonist R848 to stimulate TLR7. The plasma IL-6 level following R848 stimulation was then measured by ELISA to assess compound potency and duration-of-action. […] Therefore, the activity of compounds in the STIV assay can be confidently attributed to their modulation of the TLR7 pathway.
Six to eight week old female BALB/c mice (Jackson Labs, Bar Harbor, Me.) were dosed by oral gavage in 200 ul volume with antagonist compounds formulated in 0.5% aqueous methyl-cellulose (Sigma, St. Louis, Mo.). At various time points afterwards, mice were injected subcutaneously (s.c.) in 100 ul volume with 15 ug R848 (Resiquimod; GLSynthesis, Worcester, Mass.) to stimulate TLR7. Blood plasma was collected by cardiac puncture, and levels of IL-6 at 1.5 hours after TLR7 stimulation were then assessed by standard ELISA procedure according to the manufacturer's recommended protocol (R&D Systems).

[3] = 13 hr after oral dose, 33 mg/kg
[4] = 13 hr after oral dose, 100 mg/kg
[5] = 13 hr after oral dose, 300 mg/kg
[6] = 24 hr after oral dose, 100 mg/kg
[7] = 24 hr after oral dose, 300 mg/kg

Compound	IC50 [1] [nM]	further results
C[C@H]1C[C@@H](N(C)C)CN(c2ccc(C#N)c3ncccc23)C1 [ER-889591]	42	–
CC1(C)C[C@@H](N)CN(c2ccc(C#N)c3ncccc23)C1 [ER-895386]	17	–
CC(=O)NC1CC(C)CN(c2ccc(C#N)c3ncccc23)C1 (stereo not drawn) [ER-896310]	63	–
CC1CC(O)CN(c2ccc(C#N)c3ncccc23)C1 (stereo not drawn) [ER-896464]	6	–
CN[C@@H]1C[C@H](C)CN(c2ccc(C#N)c3ncccc23)C1 [ER-897184]	4	–
CC1CC(NC(=O)CN)CN(c2ccc(C#N)c3ncccc23)C1 (stereo not drawn) [ER-897274]	7	–
COCCNC1CC(C)CN(c2ccc(C#N)c3ncccc23)C1 (stereo not drawn) [ER-897275]	6	–
CNCC(=O)NC1CC(C)CN(c2ccc(C#N)c3ncccc23)C1 (stereo not drawn) [ER-897608]	5	% Suppression vs. Vehicle ([2]; 6 h after oral dose, 33 mg/kg): 98%; % Suppression vs. Vehicle [2, 3]: 56%; % Suppression vs. Vehicle [2, 4]: 84%; % Suppression vs. Vehicle [2, 5]: 98%; % Suppression vs. Vehicle ([2]; 24 hr after oral dose, 33 mg/kg): 35%; % Suppression vs. Vehicle [2, 6]: 22%; % Suppression vs. Vehicle [2, 7]: 95%
CC1CC(NC(=O)CO)CN(c2ccc(C#N)c3ncccc23)C1 (stereo not drawn) [ER-897971]	5	–
CC1CC(NC(=O)C(O)C(C)C)CN(c2ccc(C#N)c3ncccc23)C1 (stereo not drawn) [ER-897972]	17	–
CC1CC(NC(=O)c2cccc(O)c2)CN(c2ccc(C#N)c3ncccc23)C1 (stereo not drawn) [ER-897973]	11	–
CC1CC(NC(=O)CS(C)(=O)=O)CN(c2ccc(C#N)c3ncccc23)C1 (stereo not drawn) [ER-897978]	14	–
CC1CC(NC(=O)C(N)C(C)C)CN(c2ccc(C#N)c3ncccc23)C1 (stereo not drawn) [ER-897987]	12	–
COCC(N)C(=O)NC1CC(C)CN(c2ccc(C#N)c3ncccc23)C1 (stereo not drawn) [ER-897990]	3	–
CC(C)CC(N)C(=O)NC1CC(C)CN(c2ccc(C#N)c3ncccc23)C1 (stereo not drawn) [ER-897998]	2	–
CC(C)CC(N)C(=O)NC1CC(C)CN(c2ccc(C#N)c3ncccc23)C1 (stereo not drawn) [ER-897999]	2	–
CNC(C(=O)NC1CC(C)CN(c2ccc(C#N)c3ncccc23)C1)C(C)C (stereo not drawn) [ER-898334]	8	–
CC1CC(NC(=O)C(N)c2ccccc2)CN(c2ccc(C#N)c3ncccc23)C1 (stereo not drawn) [ER-898350]	20	–
CC1CC(NC(=O)C(N)Cc2cccnc2)CN(c2ccc(C#N)c3ncccc23)C1 (stereo not drawn) [ER-898360]	11	–
CC1CC(NC(=O)C2(C)COC2)CN(c2ccc(C#N)c3ncccc23)C1 (stereo not drawn) [ER-899072]	8	% Suppression vs. Vehicle ([2]; 6 h after oral dose, 100 mg/kg): 94%; % Suppression vs. Vehicle [2, 3]: 34%; % Suppression vs. Vehicle [2, 4]: 72%; % Suppression vs. Vehicle [2, 5]: 100%; % Suppression vs. Vehicle [2, 6]: 0%; % Suppression vs. Vehicle [2, 7]: 78%
C[C@H]1C[C@@H](NC(=O)C2(N)COC2)CN(c2ccc(C#N)c3ncccc23)C1 [ER-899350]	67	–
CCOC(=O)CNC1CC(C)CN(c2ccc(C#N)c3ncccc23)C1 (stereo not drawn) [ER-899504]	81	–
CCOC(=O)CN(CC(=O)OCC)C1CC(C)CN(c2ccc(C#N)c3ncccc23)C1 (stereo not drawn) [ER-899505]	127	–
CC1CC(NC2COC2)CN(c2ccc(C#N)c3ncccc23)C1 (stereo not drawn) [ER-899541]	15	% Suppression vs. Vehicle ([2]; 6 h after oral dose, 100 mg/kg): 97%; % Suppression vs. Vehicle [2, 4]: 92%
CC1CC(NC2CCOC2)CN(c2ccc(C#N)c3ncccc23)C1 (stereo not drawn) [ER-899544]	5	% Suppression vs. Vehicle ([2]; 6 h after oral dose, 100 mg/kg): 97%; % Suppression vs. Vehicle [2, 4]: 94%
C[C@H]1C[C@@H](NCc2ncco2)CN(c2ccc(C#N)c3ncccc23)C1 [ER-899551]	24	–
C[C@H]1C[C@@H](NCc2cn(C)cn2)CN(c2ccc(C#N)c3ncccc23)C1 [ER-899552]	104	–
C[C@H]1C[C@@H](NS(=O)(=O)CCN)CN(c2ccc(C#N)c3ncccc23)C1 [ER-899669]	9	–
C[C@H]1C[C@@H](NS(=O)(=O)CCCN(C)C)CN(c2ccc(C#N)c3ncccc23)C1 [ER-899672]	3	% Suppression vs. Vehicle ([2]; 6 h after oral dose, 100 mg/kg): 89%; % Suppression vs. Vehicle [2, 4]: 83%

Reference: patent publication US9663486B2, “Selectively substituted quinoline compounds” (EISAI R&D MANAGEMENT CO., LTD., priority 2013, dated 2017)
